target: T1, Nav 1.7 (Homo sapiens, UniProt Q15858); experiment: Whole-cell voltage clamp electrophysiology, automated patch clamp (marker c in Table of Examples); format: cell-based; conditions: marker c = Automated patch clamp data; read-out: Nav 1.7 activity
T1 construct: expressed in transfected cells
How it was run: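 Human NaV1.7 currents were recorded by whole-cell automated patch clamp, on IonWorks Quattro or another automated platform, typically in perforated-patch configuration. The stimulus protocol was designed to probe block mainly of the inactivated state, with a typical sweep stepping from about −65 mV holding to −10 mV, then −100 mV.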

T1 sequence (Q15858 whole entry): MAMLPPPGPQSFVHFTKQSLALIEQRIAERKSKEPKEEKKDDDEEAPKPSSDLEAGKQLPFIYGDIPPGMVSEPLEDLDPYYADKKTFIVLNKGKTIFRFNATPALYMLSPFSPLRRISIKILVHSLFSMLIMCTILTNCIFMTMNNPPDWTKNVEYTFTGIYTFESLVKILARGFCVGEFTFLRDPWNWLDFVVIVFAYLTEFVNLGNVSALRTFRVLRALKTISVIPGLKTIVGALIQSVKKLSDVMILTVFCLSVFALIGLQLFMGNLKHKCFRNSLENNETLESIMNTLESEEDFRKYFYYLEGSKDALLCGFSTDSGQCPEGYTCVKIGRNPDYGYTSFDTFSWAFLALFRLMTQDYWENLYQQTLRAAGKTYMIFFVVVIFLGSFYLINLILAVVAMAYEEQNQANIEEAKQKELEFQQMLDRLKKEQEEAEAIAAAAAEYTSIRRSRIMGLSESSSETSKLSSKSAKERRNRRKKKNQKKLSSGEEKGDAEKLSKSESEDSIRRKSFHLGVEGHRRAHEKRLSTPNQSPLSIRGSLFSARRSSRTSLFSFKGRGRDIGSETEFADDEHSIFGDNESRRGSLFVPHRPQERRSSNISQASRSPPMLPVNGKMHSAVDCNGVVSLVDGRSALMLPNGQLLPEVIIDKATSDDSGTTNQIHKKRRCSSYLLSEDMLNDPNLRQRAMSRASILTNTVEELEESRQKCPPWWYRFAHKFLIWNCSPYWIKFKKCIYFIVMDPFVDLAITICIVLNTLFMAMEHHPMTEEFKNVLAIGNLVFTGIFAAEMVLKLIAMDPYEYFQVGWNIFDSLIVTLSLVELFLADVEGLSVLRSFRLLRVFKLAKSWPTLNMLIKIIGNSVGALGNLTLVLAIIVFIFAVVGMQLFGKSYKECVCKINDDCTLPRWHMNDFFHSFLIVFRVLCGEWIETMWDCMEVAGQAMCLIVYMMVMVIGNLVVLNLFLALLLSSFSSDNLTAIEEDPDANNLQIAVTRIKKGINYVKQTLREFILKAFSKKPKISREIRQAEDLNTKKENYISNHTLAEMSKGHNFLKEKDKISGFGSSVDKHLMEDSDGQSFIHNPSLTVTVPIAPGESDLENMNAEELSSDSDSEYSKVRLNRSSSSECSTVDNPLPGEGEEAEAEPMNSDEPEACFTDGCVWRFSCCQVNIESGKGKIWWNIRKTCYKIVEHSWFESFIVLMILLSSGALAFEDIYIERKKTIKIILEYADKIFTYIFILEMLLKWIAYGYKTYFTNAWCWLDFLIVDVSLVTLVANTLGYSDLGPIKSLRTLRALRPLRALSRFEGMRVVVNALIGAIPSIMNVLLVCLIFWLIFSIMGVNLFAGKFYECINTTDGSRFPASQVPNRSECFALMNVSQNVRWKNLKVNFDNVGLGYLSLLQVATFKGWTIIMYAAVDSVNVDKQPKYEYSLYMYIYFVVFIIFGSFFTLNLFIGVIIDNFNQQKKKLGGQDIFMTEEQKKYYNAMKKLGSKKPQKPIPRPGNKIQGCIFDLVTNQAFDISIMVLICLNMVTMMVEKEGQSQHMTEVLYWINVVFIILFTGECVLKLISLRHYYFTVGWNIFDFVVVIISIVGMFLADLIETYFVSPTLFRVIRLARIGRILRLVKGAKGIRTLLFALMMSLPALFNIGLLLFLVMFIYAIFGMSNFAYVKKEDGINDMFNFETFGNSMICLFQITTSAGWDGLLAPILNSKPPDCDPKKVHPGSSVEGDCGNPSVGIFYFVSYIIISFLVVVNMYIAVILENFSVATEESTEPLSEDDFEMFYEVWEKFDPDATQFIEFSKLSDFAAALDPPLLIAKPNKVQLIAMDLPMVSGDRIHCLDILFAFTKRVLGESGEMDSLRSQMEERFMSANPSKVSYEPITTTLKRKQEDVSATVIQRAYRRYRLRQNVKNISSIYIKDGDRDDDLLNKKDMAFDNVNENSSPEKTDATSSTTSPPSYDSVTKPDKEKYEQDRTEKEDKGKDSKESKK

Structure (SMILES) | IC50 [µM]
CN(c1ccccc1)c1nc(N)nc(-c2noc(-c3ncc(F)cc3F)n2)n1 [Example 281] | 1.81
Cc1ccc(-c2nc(-c3nc(N)nc(N(C)c4ccccc4)n3)no2)cn1 [Example 283, 2-N-methyl-6-[5-(6-methylpyridin-3-yl)-1,2,4-oxadiazol-3-yl]-2-N-phenyl-1,3,5-triazine-2,4-diamine] | 1.38
CN(c1ccccc1)c1nc(N)nc(-c2noc(-c3ccc(C(=O)NC4CCC4)nc3)n2)n1 [Example 286, 5-(3-{4-amino-6-[methyl(phenyl)amino]-1,3,5-triazin-2-yl}-1,2,4-oxadiazol-5-yl)-N-cyclobutylpyridine-2-carboxamide] | 1.07
CN(c1ccccc1)c1nc(N)nc(-c2noc(-c3ccc(C(=O)NC4CC4)nc3)n2)n1 [Example 287, 5-(3-{4-amino-6-[methyl(phenyl)amino]-1,3,5-triazin-2-yl}-1,2,4-oxadiazol-5-yl)-N-cyclopropylpyridine-2-carboxamide] | 1.89
CN(c1ccccc1)c1nc(N)nc(-c2noc(-c3ccc(C(=O)NCC4CC4)nc3)n2)n1 [Example 288, 5-(3-{4-amino-6-[methyl(phenyl)amino]-1,3,5-triazin-2-yl}-1,2,4-oxadiazol-5-yl)-N-(cyclopropylmethyl)pyridine-2-carboxamide] | 1.14
CN(c1ccccc1)c1nc(N)nc(-c2noc(-c3ccc(C(=O)NCC(F)(F)F)cn3)n2)n1 [Example 292, 6-(3-{4-amino-6-[methyl(phenyl)amino]-1,3,5-triazin-2-yl}-1,2,4-oxadiazol-5-yl)-N-(2,2,2-trifluoroethyl)pyridine-3-carboxamide] | 2.71
CN(c1ccccc1)c1nc(N)nc(-c2noc(-c3ccc(CN4CCCC4)nc3)n2)n1 [Example 293, 2-N-Methyl-2-N-phenyl-6-{5-[6-(pyrrolidin-1-ylmethyl)pyridin-3-yl]-1,2,4-oxadiazol-3-yl}-1,3,5-triazine-2,4-diamine] | 1.35
CC(c1ccc(-c2nc(-c3nc(N)nc(N(C)c4ccccc4)n3)no2)nc1)N1CCCC1 (stereo not shown) [Example 294, 2-N-Methyl-2-N-phenyl-6-(5-{5-[1-(pyrrolidin-1-yl)ethyl]pyridin-2-yl}-1,2,4-oxadiazol-3-yl)-1,3,5-triazine-2,4-diamine] | 3.98
CN(c1ccccc1)c1nc(N)nc(-c2noc(-c3ccc(CO)nc3)n2)n1 [Example 295, [5-(3-{4-Amino-6-[methyl(phenyl)amino]-1,3,5-triazin-2-yl}-1,2,4-oxadiazol-5-yl)pyridin-2-yl]methanol] | 5.19
CN(c1ccccc1)c1nc(N)nc(-c2noc(-c3ccc(CN4CCOCC4)nc3)n2)n1 [Example 299, 2-N-methyl-6-{5-[6-(morpholin-4-ylmethyl)pyridin-3-yl]-1,2,4-oxadiazol-3-yl}-2-N-phenyl-1,3,5-triazine-2,4-diamine] | 1.11
C=Cc1ccc(-c2nc(-c3nc(N)nc(N(C)c4ccccc4)n3)no2)cc1 [Example 305, 6-[5-(4-ethenylphenyl)-1,2,4-oxadiazol-3-yl]-2-N-methyl-2-N-phenyl-1,3,5-triazine-2,4-diamine] | 0.804
CN(c1ccccc1)c1nc(N)nc(-c2noc(-c3ccc4c(c3)COC4)n2)n1 [Example 306, 6-(5-(1,3-dihydro-2-benzofuran-5-yl)-1,2,4-oxadiazol-3-yl]-2-N-methyl-2-N-phenyl-1,3,5-triazine-2,4-diamine] | 2.67
CCCS(=O)(=O)N1CC(c2nc(-c3nc(N)nc(N(C)c4ccccc4)n3)no2)C1 [Example 307, 2-N-methyl-2-N-phenyl-6-{5-[1-(propane-1-sulfonyl)azetidin-3-yl]-1,2,4-oxadiazol-3-yl}-1,3,5-triazine-2,4-diamine] | 8.05
CC(C)S(=O)(=O)N1CC(c2nc(-c3nc(N)nc(N(C)c4ccccc4)n3)no2)C1 [Example 308, 2-N-methyl-2-N-phenyl-6-{5-[1-(propane-2-sulfonyl)azetidin-3-yl]-1,2,4-oxadiazol-3-yl}-1,3,5-triazine-2,4-diamine] | 8.77
CCS(=O)(=O)N1CC(c2nc(-c3nc(N)nc(N(C)c4ccccc4)n3)no2)C1 [Example 309, 6-{5-[1-(ethanesulfonyl)azetidin-3-yl]-1,2,4-oxadiazol-3-yl}-2-N-methyl-2-N-phenyl-1,3,5-triazine-2,4-diamine] | 1.73
CN(c1ccccc1)c1nc(N)nc(-c2noc(C3CN(S(=O)(=O)CC(F)(F)F)C3)n2)n1 [Example 310, 2-N-methyl-2-N-phenyl-6-(5-{1-[(2,2,2-trifluoroethane)sulfonyl]azetidin-3-yl}-1,2,4-oxadiazol-3-yl)-1,3,5-triazine-2,4-diamine] | 0.968
CN(c1ccccc1)c1nc(N)nc(-c2noc(C3CN(S(=O)(=O)c4ccccc4)C3)n2)n1 [Example 313, 6-{5-[1-(benzenesulfonyl)azetidin-3-yl]-1,2,4-oxadiazol-3-yl}-2-N-methyl-2-N-phenyl-1,3,5-triazine-2,4-diamine] | 4.86
CN(c1ccccc1)c1nc(N)nc(-c2noc(C3CN(CC(F)(F)F)C3)n2)n1 [Example 314, 2-N-Methyl-2-N-phenyl-6-{5-[1-(2,2,2-trifluoroethyl)azetidin-3-yl]-1,2,4-oxadiazol-3-yl}-1,3,5-triazine-2,4-diamine] | 3.07
CN(c1ccccc1)c1nc(N)nc(-c2noc(-c3ccc(C[S+]([O-])CC(F)(F)F)nc3)n2)n1 (stereo not shown) [Example 317, 2-N-Methyl-2-N-phenyl-6-[5-(6-{[(2,2,2-trifluoroethane)sulfinyl]methyl}pyridin-3-yl)-1,2,4-oxadiazol-3-yl]-1,3,5-triazine-2,4-diamine] | 2.77

Stronger by IC50, values ahead:

IC50 [µM] | Structure (SMILES)
0.513 | CN(c1ccccc1)c1nc(N)nc(-c2noc(-c3ccc(C(=O)NCC(F)(F)F)nc3)n2)n1 [Example 280, 5-(3-{4-Amino-6-[methyl(phenyl)amino]-1,3,5-triazin-2-yl}-1,2,4-oxadiazol-5-yl)-N-(2,2,2-trifluoroethyl)pyridine-2-carboxamide]
0.711 | CN(c1ccccc1)c1nc(N)nc(-c2noc(-c3ccc(C(N)=O)nc3)n2)n1 [Example 284, 5-(3-{4-Amino-6-[methyl(phenyl)amino]-1,3,5-triazin-2-yl}-1,2,4-oxadiazol-5-yl)pyridine-2-carboxamide]
0.308 | COC(=O)c1ccc(-c2nc(-c3nc(N)nc(N(C)c4ccccc4)n3)no2)nc1 [Example 285, methyl 6-(3-{4-amino-6-[methyl(phenyl)amino]-1,3,5-triazin-2-yl}-1,2,4-oxadiazol-5-yl)pyridine-3-carboxylate]
0.39 | CC(C)OC(=O)c1ccc(-c2nc(-c3nc(N)nc(N(C)c4ccccc4)n3)no2)cn1 [Example 289, propan-2-yl 5-(3-{4-amino-6-[methyl(phenyl)amino]-1,3,5-triazin-2-yl}-1,2,4-oxadiazol-5-yl)pyridine-2-carboxylate]
0.059 | CN(c1ccccc1)c1nc(N)nc(-c2noc(-c3ccc(C(=O)OC4CCCC4)nc3)n2)n1 [Example 290, cyclopentyl 5-(3-{4-amino-6-[methyl(phenyl)amino]-1,3,5-triazin-2-yl}-1,2,4-oxadiazol-5-yl)pyridine-2-carboxylate]
0.274 | CC(=O)c1ccc(-c2nc(-c3nc(N)nc(N(C)c4ccccc4)n3)no2)nc1 [Example 296, 1-[6-(3-{4-amino-6-[methyl(phenyl)amino]-1,3,5-triazin-2-yl}-1,2,4-oxadiazol-5-yl)pyridin-3-yl]ethan-1-one]
0.21 | COC(=O)c1ccc(-c2nc(-c3nc(N)nc(Nc4ccccc4)n3)no2)cn1 [Example 297]
0.619 | CN(c1ccccc1)c1nc(N)nc(-c2noc(-c3ccc(CNC4CCC4)nc3)n2)n1 [Example 300, 6-(5-{6-[(cyclobutylamino)methyl]pyridin-3-yl}-1,2,4-oxadiazol-3-yl)-2-N-methyl-2-N-phenyl-1,3,5-triazine-2,4-diamine]
0.338 | CN(c1ccccc1)c1nc(N)nc(-c2noc(-c3cccnc3COCC(F)(F)F)n2)n1 [Example 301, 2-N-methyl-2-N-phenyl-6-(5-{2-[(2,2,2-trifluoroethoxy)methyl]pyridin-3-yl}-1,2,4-oxadiazol-3-yl)-1,3,5-triazine-2,4-diamine]
0.406 | CN(c1ccccc1)c1nc(N)nc(-c2noc(-c3ncccc3COCC(F)(F)F)n2)n1 [Example 302, 2-N-methyl-2-N-phenyl-6-(5-{3-[(2,2,2-trifluoroethoxy)methyl]pyridin-2-yl}-1,2,4-oxadiazol-3-yl)-1,3,5-triazine-2,4-diamine]
0.746 | CC(=O)c1ccc(-c2nc(-c3nc(N)nc(N(C)c4ccccc4)n3)no2)cn1 [Example 304, 1-[5-(3-{4-Amino-6-[methyl(phenyl)amino]-1,3,5-triazin-2-yl}-1,2,4-oxadiazol-5-yl)pyridin-2-yl]ethan-1-one]
0.451 | COCCN(c1ccccc1)c1nc(N)nc(-c2noc(-c3ccc(C(=O)OC)nc3)n2)n1 [Example 311, methyl 5-(3-{4-amino-6-[(2-methoxyethyl)(phenyl)amino]-1,3,5-triazin-2-yl}-1,2,4-oxadiazol-5-yl)pyridine-2-carboxylate]
0.139 | COCCN(c1ccccc1)c1nc(N)nc(-c2noc(-c3ccc(COCC(F)(F)F)nc3)n2)n1 [Example 312, 2-N-(2-Methoxyethyl)-2-N-phenyl-6-(5-{6-[(2,2,2-trifluoroethoxy)methyl]pyridin-3-yl}-1,2,4-oxadiazol-3-yl)-1,3,5-triazine-2,4-diamine]
0.17 | CN(c1ccccc1)c1nc(N)nc(-c2noc(-c3ccc(CCC(F)(F)F)nc3)n2)n1 [Example 315, 2-N-methyl-2-N-phenyl-6-{5-[6-(3,3,3-trifluoropropyl)pyridin-3-yl]-1,2,4-oxadiazol-3-yl}-1,3,5-triazine-2,4-diamine]
0.013 | CN(c1ccccc1)c1nc(N)nc(-c2noc(-c3ccc(CSCC(F)(F)F)nc3)n2)n1 [Example 316, 2-N-methyl-2-N-phenyl-6-[5-(6-{[(2,2,2-trifluoroethyl)sulfanyl]methyl}pyridin-3-yl)-1,2,4-oxadiazol-3-yl]-1,3,5-triazine-2,4-diamine]

— patent US8895733B2 (Novartis AG, priority 2010, dated 2014)
